Values quoted from earlier work as cited in patent publication US5141290A, “Toothbrush” (Hamivreshet Brush Factory, priority 1990, dated 1992).

Tested on: dental plaque

In the case of `[H]/N=C(\N/C(=N/[H])NCCCCCCNC(=N)NC(=N)Nc1ccc(Cl)cc1)Nc1ccc(Cl)cc1` [chlorhexidine], the “potential to inhibit the formation of plaque” value (clinically tested, among chemical agents) is listed as “has shown the greatest promise” and the plaque-reducing property (in vivo) is listed as “high plaque-reducing property”.
